Several values for one entry are separate records, joined by “and”; a condition that tells them apart may be missing. Identical values can stand only once. Numbers after ± are expanded uncertainties.
Assay: xn = mol fraction of the nth substance listed
Conditions: 96 kPa, Liquid, Pycnometric method

C1CCC2=NCCCN2CC1 [1,8-diaza-7-bicyclo[5.4.0]undecene] + OCC(O)CO
mass density
Conditions | 288.15 K | 293.15 K | 298.15 K | 303.15 K | 308.15 K | 313.15 K | 318.15 K | 323.15 K | 328.15 K
x1 = 0.0501 | 1251.8 ± 8.6 kg/m3 | – | 1245.4 ± 8.6 kg/m3 | – | 1239 ± 8.6 kg/m3 | – | 1232.2 ± 8.6 kg/m3 | – | 1224.9 ± 8.6 kg/m3
x1 = 0.0909 | 1238.4 ± 8.6 kg/m3 | – | 1231.7 ± 8.6 kg/m3 | – | 1224.7 ± 8.6 kg/m3 | – | 1217.1 ± 8.6 kg/m3 | – | 1208.3 ± 8.6 kg/m3
x1 = 0.0926 | – | 1236.7 ± 8.6 kg/m3 | – | 1229.7 ± 8.6 kg/m3 | – | 1222.9 ± 8.6 kg/m3 | – | 1216 ± 8.6 kg/m3 | –
x1 = 0.1667 | 1211.2 ± 8.6 kg/m3 | – | 1204.2 ± 8.6 kg/m3 | – | 1196.4 ± 8.6 kg/m3 | – | 1188.2 ± 8.6 kg/m3 | – | 1180.2 ± 8.6 kg/m3
x1 = 0.1902 | – | 1197.8 ± 8.6 kg/m3 | – | 1191.9 ± 8.6 kg/m3 | – | 1184.5 ± 8.6 kg/m3 | – | 1177.6 ± 8.6 kg/m3 | –
x1 = 0.2 | 1200.6 ± 8.6 kg/m3 | – | 1192.3 ± 8.6 kg/m3 | – | 1184.9 ± 8.6 kg/m3 | – | 1176.9 ± 8.6 kg/m3 | – | 1170.9 ± 9.6 kg/m3 and 1169.4 ± 8.6 kg/m3
x1 = 0.2153 | 1195.3 ± 8.6 kg/m3 | – | 1187 ± 8.6 kg/m3 | – | 1179.6 ± 8.6 kg/m3 | – | 1171.5 ± 8.6 kg/m3 | – | 1164.2 ± 8.6 kg/m3
x1 = 0.2306 | 1190.3 ± 8.6 kg/m3 | – | 1181.8 ± 8.6 kg/m3 | – | 1174.6 ± 8.6 kg/m3 | – | 1166.7 ± 8.6 kg/m3 | – | 1158.9 ± 8.5 kg/m3
x1 = 0.2998 | – | 1161.7 ± 8.5 kg/m3 | – | 1156.4 ± 8.5 kg/m3 | – | 1149.2 ± 8.5 kg/m3 | – | 1142.5 ± 8.5 kg/m3 | –
x1 = 0.3059 | 1167.2 ± 8.5 kg/m3 | – | 1158 ± 8.5 kg/m3 | – | 1150.5 ± 8.5 kg/m3 | – | 1142.9 ± 8.5 kg/m3 | – | 1136 ± 8.5 kg/m3
x1 = 0.3333 | 1159.4 ± 8.5 kg/m3 | – | 1149.8 ± 8.5 kg/m3 | – | 1142.5 ± 8.5 kg/m3 | – | 1134.9 ± 8.5 kg/m3 | – | 1128 ± 8.5 kg/m3
x1 = 0.3996 | – | 1133.2 ± 8.5 kg/m3 | – | 1128.3 ± 8.5 kg/m3 | – | 1121.2 ± 8.5 kg/m3 | – | 1114.6 ± 8.5 kg/m3 | –
x1 = 0.4011 | 1141.5 ± 8.5 kg/m3 | – | 1131.6 ± 8.5 kg/m3 | – | 1124.1 ± 8.5 kg/m3 | – | 1117.3 ± 8.5 kg/m3 | – | 1109.7 ± 8.5 kg/m3
x1 = 0.5 | 1117.4 ± 8.5 kg/m3 | – | 1107.1 ± 9.6 kg/m3 and 1108.1 ± 8.5 kg/m3 | – | 1100.2 ± 8.5 kg/m3 | – | 1091.1 ± 9.6 kg/m3 and 1093.5 ± 8.5 kg/m3 | – | 1086 ± 8.5 kg/m3
x1 = 0.5032 | – | 1108.7 ± 8.5 kg/m3 | – | 1102.3 ± 8.5 kg/m3 | – | 1095.3 ± 8.5 kg/m3 | – | 1087.4 ± 8.5 kg/m3 | –
x1 = 0.5632 | 1102.9 ± 8.5 kg/m3 | – | 1093.7 ± 8.5 kg/m3 | – | 1086.4 ± 8.5 kg/m3 | – | 1079.3 ± 8.5 kg/m3 | – | 1071.9 ± 8.5 kg/m3
x1 = 0.5995 | – | 1088 ± 8.5 kg/m3 | – | 1081.9 ± 8.5 kg/m3 | – | 1075.9 ± 8.5 kg/m3 | – | 1068.3 ± 8.5 kg/m3 | –
x1 = 0.625 | 1089.8 ± 8.5 kg/m3 | – | 1081 ± 8.5 kg/m3 | – | 1073.9 ± 8.5 kg/m3 | – | 1066.7 ± 8.5 kg/m3 | – | 1059.1 ± 8.5 kg/m3
x1 = 0.6992 | – | 1069.6 ± 8.5 kg/m3 | – | 1064.2 ± 8.5 kg/m3 | – | 1056.8 ± 8.5 kg/m3 | – | 1049.7 ± 8.5 kg/m3 | –
x1 = 0.75 | 1066.1 ± 9.6 kg/m3 and 1065.4 ± 8.5 kg/m3 | – | 1058.1 ± 8.5 kg/m3 | – | 1050.9 ± 8.5 kg/m3 | – | 1042.7 ± 8.5 kg/m3 | – | 1035.3 ± 8.5 kg/m3
x1 = 0.7998 | – | 1052.3 ± 8.5 kg/m3 | – | 1045.7 ± 8.5 kg/m3 | – | 1038.7 ± 8.5 kg/m3 | – | 1031.5 ± 8.5 kg/m3 | –
x1 = 0.8333 | 1051.7 ± 8.5 kg/m3 | – | 1044.3 ± 8.5 kg/m3 | – | 1037 ± 8.5 kg/m3 | – | 1028.7 ± 8.5 kg/m3 | – | 1021.1 ± 8.5 kg/m3
x1 = 0.9001 | – | 1030.8 ± 8.5 kg/m3 | – | 1028.9 ± 8.5 kg/m3 | – | 1021.2 ± 8.5 kg/m3 | – | 1013.9 ± 8.5 kg/m3 | –
x1 = 1 | 1020.6 ± 8.2 kg/m3 | 1017.1 ± 8.2 kg/m3 | 1014.1 ± 8.2 kg/m3 | 1010.9 ± 8.2 kg/m3 | 1007.4 ± 8.2 kg/m3 | 1004.6 ± 8.2 kg/m3 | 1000.8 ± 8.2 kg/m3 | 998.4 ± 8.2 kg/m3 | 994.2 ± 8.2 kg/m3

— the NIST ThermoML archive (doi:10.1016/j.jct.2018.03.017)
